Laboratory results as given in patent US12516364B2, “Device for testing bacterium, and method for testing bacterium” (Hitachi High-Tech Corporation, priority 2018, dated 2026).

Tested on: Escherichia coli
Experiment: antibacterial susceptibility determination from microscopic images (luminance value and area of bacteria)
Assay type: cell-based
Details: ampicillin 2 μg/mL; 0 to 360 minutes; with or without minimum filter; growth has not occurred over the entire image
Description: The test plate 102 has a plurality of wells, and each well holds a medium component that facilitate the growth of bacteria and an antibacterial drug to be tested. After a bacterial solution containing the bacteria to be tested is dispensed to each well, the test plate 102 is introduced into the bacteria test apparatus 100. The bacteria test apparatus 100 is adjusted to a temperature, such as 37° C., at which the bacteria can grow.
The illuminator 101 illuminates the test plate 102 with light. As the illuminator 101, a light source of white light such as a lamp or a light source of light in a specific wavelength range such as an LED may be used. Light passing through each well of the test plate 102 is condensed by the objective lens 103 and measured as an image by the imager 104. […] Further, images of a plurality of points in each well may be captured, or alternatively, a plurality of images of the inside of the culture solution away from the bottom surface of each well of the test plate 102 may be measured. […]
The determiner 1055 acquires the new feature from the arithmetic unit 1051 and outputs the determination result for each well. […] The mean of luminance values is calculated from the image captured at the preset determination time, and a difference from the mean of luminance values at an initial culture stage is calculated. […]

SMILES: CC1(C)S[C@@H]2[C@H](NC(=O)[C@H](N)c3ccccc3)C(=O)N2[C@H]1C(=O)O [ampicillin]
- time variation in mode of luminance values: does not vary
